Values of other authors in patent US20100192311A1, “METHOD FOR PERFUMING FABRICS” (priority 2009, published 2010).
Structures can show the parent of a compound that is named as a salt.

Key:
[1] = in water
[2] = tested on: typical Gram negative and positive bacteria, fungi and yeasts; settings: level from about 0.001% to about 0.5% by weight of the usage composition

Row | water solubility [1] | Compound | effective against typical Gram negative and positive bacteria, fungi and yeasts [2]
1 | about 0.8% | CC(C)(O)C(Cl)(Cl)Cl [chlorobutanol, 1,1,1-Trichloro-2-methylpropan-2-ol] | 
2 | about 4% | OCc1ccccc1 [benzyl alcohol] | 
3 | about 70% | [H]/N=C(\N/C(=N/[H])NCCCCCCNC(=N)NC(=N)Nc1ccc(Cl)cc1)Nc1ccc(Cl)cc1 [chlorhexidine digluconate salt, 1,1′-hexamethylene bis(5-(p-chlorophenyl)biguanide), reference compound] | 
4 | more than 50% | CC1(C)C(=O)N(CO)C(=O)N1CO [DMDM hydantoin, 1,3-bis(hydroxymethyl)-5,5-dimethyl-2,4-imidazolidinedione] | 
5 | about 2% | OCCc1ccccc1 [Phenyl Ethyl Alcohol, 2-phenylethanol] | 
6 | about 1.8% | [H]/N=C(\N/C(=N/[H])NCCCCCCNC(=N)NC(=N)Nc1ccc(Cl)cc1)Nc1ccc(Cl)cc1 [chlorhexidine diacetate salt, 1,1′-hexamethylene bis(5-(p-chlorophenyl)biguanide), reference compound] | 

Second part, the compound before the results:

Row | Compound | water solubility [1] | effective against typical Gram negative and positive bacteria, fungi and yeasts [2]
7 | O=[N+]([O-])C1(Br)COCOC1 [Bronidox L, 5-bromo-5-nitro-1,3-dioxane] | about 0.46% | 
8 | Cn1sc2c(c1=O)CCC2 [Promexal, 2-methyl-4,5-trimethylene-4-isothiazolin-3-one] |  | effective
9 | O=c1[nH]sc2ccccc12 [Proxel, 1,2-benzisothiazolin-3-one] |  | effective
10 | OCCOc1ccccc1 [2-phenoxyethanol] | about 2.67% | 
11 | [Na+].[O-][n+]1ccccc1[S-] [sodium pyrithione] | about 50% | 
